Results on four compounds are retold here after paper PMC11767423, “Design, Synthesis, and Antioxidant and Anti-Tyrosinase Activities of (Z)-5-Benzylidene-2-(naphthalen-1-ylamino)thiazol-4(5H)-one Analogs: In Vitro and In Vivo Insights” (Molecules, 2025).

Molecules are shown by their SMILES.

Data set [1] in a line: Assay for ABTS+ radical scavenging. The following applies: 100 μM. On the procedure: The ABTS^+-scavenging efficacy of compounds 1–15 was determined by oxidizing ABTS with K2S2O8 to prepare ABTS^+. The prepared ABTS^+ solution was mixed with the test samples (1–15 and Trolox, a positive control) and the radical-scavenging efficacy of the test samples was explored by measuring the decrease in optical density at 732 nm. All test samples were tested at 100 μM.
To acquire ABTS^+ radicals, ABTS (14 mM in 20 mL H2O) was mixed with K2S2O8 (4.9 mM in 20 mL H2O), an oxidant agent, and stored at 22 °C in a place without light for 15 h. The absorbance of the prepared ABTS^+ radical solution was adjusted to 0.70 ± 0.01 at 732 nm by adding methanol. Test samples (Trolox [positive control] and 1–15) were dissolved in a co-solvent (DMSO:EtOH = 1:10 [v/v]). The diluted ABTS^+ radical solution (90 μL) was added to the test sample solution (10 μL) in each well of a 96-well plate and held at 22 °C in the dark for 2 min. The optical density of each well was recorded at 732 nm every 1 min for 10 min using an ELISA reader. The final concentration of test samples was 100 μM. %Radical-scavenging activity was determined using the formula 100 × [(Abscon − Abssam)/Abscon], where Abscon and Abssam represent the optical densities of the control and the samples, respectively.

A short description of data set [2]: Assay for ROS scavenging (SIN-1/DCFH). The following applies: 40 μM sample; 10 μM SIN-1. How it is done:
To assess the ability of compounds 1–15 to scavenge ROS, 2′,7′-dichlorodihydrofluorescein (DCFH) solution, which was obtained from hydrolysis of DCFH diacetate by esterase, was mixed with 3-morpholinosydnonimine (SIN-1), a ROS generator, and test samples (1–15 and Trolox, a positive material). ROS produces 2′,7′-dichlorofluorescein (DCF), a fluorescent material, by oxidizing DCFH. The ROS-scavenging activity of the samples was determined by measuring the fluorescence of DCF. The results were obtained at 10 μM SIN-1 and 40 μM sample.
To obtain 2′,7′-dichlorodihydrofluorescein (DCFH) solution, esterase (3 units/2 mL) was mixed with 2.5 mM DCFH diacetate and 50 mM phosphate buffer (pH 7.4). After incubating the mixture at 22 °C for 25 min, it was kept in the dark. 3-Morpholinosydnonimine (SIN-1) and compounds 1–15 were dissolved in phosphate buffer and DMSO, respectively. SIN-1 (10 µL) and compound (10 µL) were added to each well of a 96-well black plate containing phosphate buffer (180 µL), and the concentrations of SIN-1 and compound were 10 and 40 μM, respectively. Trolox (40 μM) was used as a positive material. […] To measure the fluorescence of 2′,7′-dichlorofluorescein at 535 nm, a microplate reader (Berthold Advances GmbH &Co., Bad Wildbad, Germany) was utilized with an excitation wavelength of 485 nm. […]

In data set [3] the target is mushroom tyrosinase (Agaricus bisporus, UniProt C7FF04). As to the kind of experiment: Kinetic experiment using mushroom tyrosinase (Lineweaver–Burk and Dixon plots). The format is biochemical. On the procedure: The plots for inhibitors 10 and 15 were obtained by measuring the initial rate of dopachrome production in the presence of various L-DOPA substrate concentrations (Figure 3A,C). For the kinetic experiments, compounds 10 and 15 were used at 0, 1, 2, and 4 μM and at 0, 4, 8, and 16 μM, respectively.
Ki, known as the dissociation constant or inhibition constant, describes the binding affinity between the enzyme and inhibitor. […] Dixon plots were acquired by plotting the inverse of the initial dopachrome formation rate against the inhibitor concentration (Figure 3B,D). Each Dixon plot produces four lines that merge at one point in the second quadrant. The absolute value of the x co-ordinate of the merge point represents the Ki value. […] The lower the Ki value, the stronger the binding affinity. Thus, compound 10 bound more strongly to the tyrosinase active site than compound 15.
The identification of the tyrosinase inhibition mechanism was carried out by kinetic studies using mushroom tyrosinase. Test samples (10 μL; compounds 10 and 15) were mixed with a mushroom tyrosinase aqueous solution (20 μL; 100 units/mL) and a substrate solution (170 μL; substrate [L-DOPA] and 17.2 mM sodium phosphate pH 6.5 buffer) in each well of 96-well microplate. To obtain Lineweaver–Burk plots for kinetic analysis, L-DOPA and test samples were used at various concentrations: 0, 1, 2, and 4 μM for 10; 0, 4, 8, and 16 μM for 15; and 1, 2, 4, 8, and 16 mM for L-DOPA. During a 30 min incubation period, the initial dopachrome formation rate was calculated by measuring the optical density at 475 nm at 5 min intervals using an ELISA reader. Lineweaver–Burk plots were prepared by plotting the inverse of the substrate concentration against the inverse of the initial dopachrome formation rate in the presence of four different concentrations of compounds 10 and 15.

Data set [4] has as its system B16F10 cells. As to the kind of experiment: Cell viability on B16F10 cells (EZ-Cytox). In kind it is cell-based. Conditions: 72 h. On the procedure: Therefore, we investigated whether these compounds exert tyrosinase inhibitory activity in B16F10 mammalian cells. We examined the effects of these compounds on B16F10 cell viability. Cell viability was assessed for 72 h at five concentrations (1, 2, 5, 10, and 20 μM) of compounds 10 and 15.
The viability of B16F10 cells in the presence of compounds 10 and 15 was assayed. A 96-well microplate containing 1 × 10^3 B16F10 cells per well was incubated at 37 °C in a humid environment containing 5% CO2 for 24 h. Test samples (10 and 15) were added to each well at concentrations of 0, 1, 2, 5, 10, and 20 μM and incubated for 72 h. Each well was exposed to a 10 μL EZ-Cytox solution (EZ-500®, DoGenBio, Seoul, Republic of Korea) and incubated for 2 h. To determine cell viability, well optical density was measured at 450 nm using an ELISA reader.

Data set [5] relates to zebrafish larvae. The data set can be described thus: Zebrafish depigmentation assay using zebrafish embryos. The format is in vivo, Danio rerio. Also noted: pigmentation of zebrafish larvae: dose or concentration left out as unconfirmed. The following applies: treated at 28 hpf, read at 76 hpf.
Method: Zebrafish embryos were used to determine whether the synthesized compounds could inhibit melanin synthesis in vivo. […] The degree of depigmentation in zebrafish larvae was confirmed by photography 48 h later (Figure 8A). The density of the zebrafish larvae was measured using a CS analyzer 3.2 (Atto, Tokyo, Japan). […] To obtain zebrafish (wild type, Danio rerio) eggs for the experiment, six male and nine female zebrafish were raised separately in oxygen-connected tanks. Dried brine shrimp (Artemia salina, San Francisco Bay Brand, San Francisco, CA, USA) were fed as food three times per day. They were raised at 28 °C with 10 h of light blocking and 14 h of light exposure. The evening before obtaining zebrafish eggs, three females and two males were placed together in three zebrafish mating cages, and the light was blocked. The following morning, mating was induced by exposure to light. Harvested zebrafish eggs, obtained free of charge from the Zebrafish Center for Disease Modeling (Chungnam National University, Daejeon, Republic of Korea), were kept in an E3 embryonic solution containing methylene blue (MB) until the dechorionation process was performed. […] The pigmented areas in the zebrafish larval photographs were determined using an ATTO CS analyzer 3.2 (Tokyo, Japan).
In data set [6] the test system is tyrosinase activity of zebrafish larvae. As to the kind of experiment: Tyrosinase activity in zebrafish larvae. The format is in vivo, Danio rerio. Conditions: 76 hpf. How it is done:
To quantify the tyrosinase activity in zebrafish larvae, 60 zebrafish larvae at 76 hpf were divided into three Eppendorf tubes and centrifuged at 10,000× g for 10 min at 4 °C. After removing the supernatant, the residue was lysed using radioimmunoprecipitation assay buffer (100 μL) (Biosedang, Gyeonggi-do, Republic of Korea) and homogenized for 5 min using a sonicator. The lysate was centrifuged at 10,000× g for 10 min at 4 °C. The supernatants were transferred to a new Eppendorf tube and the protein content was quantified using a bicinchoninic acid protein assay kit (Thermo Fisher Scientific, Waltham, MA, USA). An aliquot (100 μL) of 1 mM L-DOPA was added to the new Eppendorf tube containing a total of 300 μg of protein in 100 μL of protein lysate. Eppendorf tubes were incubated for 1 h at 37 °C and then transferred to each well of a 96-well plate. The absorbance of each well was measured at 475 nm to determine the tyrosinase activity of zebrafish larvae.

Data set [7] has as its system B16F10 cells. The data set can be described thus: Melanin content assay in B16F10 cells. Conditions: 20 μM; α-MSH + IBMX; 72 h; stimulators alone 3.9-fold. In kind it is cell-based. How it is done: After 72 h, the effect of compound 10 on melanin biosynthesis was determined. A 6-well microplate containing 5 × 10^3 B16F10 cells per well was incubated at 37 °C for 24 h. Compound 10 was added to each well at 5, 10, and 20 μM and incubated for 1 h, and then stimulators (1 μM α-MSH and 200 μM IBMX) were added to each well before 72 h incubation. […] For the melanin content quantification, the cells were lysed at 60 °C for 1 h in 100 μL 1N-NaOH solution containing 10% DMSO after washing 2 times with phosphate-buffered saline (PBS). The cell lysates were transferred to a 96-well microplate and the optical density was measured at 405 nm using an ELISA reader to calculate the melanin content in each well.

The subject of data set [8] is B16F10 cellular tyrosinase. As to the kind of experiment: Cellular tyrosinase activity assay in B16F10 cells. The following applies: 20 μM; α-MSH + IBMX; 72 h; stimulators alone 3.9-fold vs untreated control. The format is cell-based. On the procedure:
We analyzed the effect of 10 on B16F10 cellular tyrosinase activity to determine whether the ability of 10 inhibiting melanogenesis results from its ability to inhibit cellular tyrosinase activity.
A 6-well microplate containing 5 × 10^3 B16F10 cells per well was incubated at 37 °C for 24 h. Compound 10 was added to each well at 5, 10, and 20 μM and incubated for 1 h, and then stimulators (1 μM α-MSH and 200 μM IBMX) were added to each well before 72 h incubation.
To measure the cellular tyrosinase activity, the cells incubated for 72 h were washed 2 times with PBS, exposed to a 100 μL lysis buffer solution containing 5 μL 2 mM phenylmethylsulfonyl fluoride, 5 μL 20% Triton X-100, and 90 μL 50 mM phosphate buffer (pH 6.5), and cultivated for 30 min at −80 °C. After the lysates were centrifuged at 4 °C for 10 min at 10,000× g, an aliquot (80 μL) of the supernatants was added to each well of a 96-well microplate containing 20 μL of 10 mM L-DOPA. Data for the optical density at 475 nm were obtained every 1 min for 10 min at 37 °C using an ELISA reader to determine cellular tyrosinase activity.

Data set [9] relates to B16F10 cells. The data set can be described thus: In situ cellular tyrosinase activity assay (L-DOPA staining). The format is cell-based. Conditions: 20 μM; α-MSH + IBMX; 72 h, then L-DOPA 2 h. How it is done: The effect of 10 on cellular tyrosinase activity was investigated in situ using L-DOPA and B16F10 cells. This experimental method allows for the direct observation of cellular melanin production. […] After 72 h of incubation, the cells were treated with L-DOPA for 2 h to induce melanin production.
A 24-well plate containing 1 × 10^3 B16F10 cells per well was incubated at 37 °C for 24 h. […] After incubation for 72 h, the cells were fixed for 50 min using paraformaldehyde (4%), rinsed twice with PBS, and permeabilized for 2 min using Triton X-100 (0.1%). The cells were washed with PBS and 500 μL of 2 mM L-DOPA solution was added. After the cells were incubated at 37 °C for 2 h, stained images were obtained using a camera connected to a microscope (Motic, Hong Kong, China).

A short description of data set [10]: Assay for DPPH radical scavenging. The following applies: 500 μM; 30 min in the dark. On the procedure: To evaluate the DPPH radical-scavenging efficacy of 1–15, a DPPH methanol solution was mixed with compounds 1–15, and the mixture was left in the dark. After 30 min, the radical-scavenging efficacy of each compound was determined by measuring the optical density at 517 nm. Vitamin C (L-ascorbic acid) was used for comparing radical-scavenging activity, and all test samples were treated at 500 μM.
DPPH was dissolved in methanol to prepare a 0.2 mM solution, and test samples (vitamin C [L-ascorbic acid, LA; positive control] and 1–15) were dissolved in DMSO to prepare a 5 mM solution. The DPPH methanolic solution (180 μL) was added to the test sample DMSO solution (20 μL) in each well of a 96-well microplate and kept in a place without light for 30 min at 22 °C. Using a VersaMax™ ELISA reader, the optical density of each well was recorded at 517 nm to determine DPPH radical-scavenging activity.

Chain of mushroom tyrosinase (C7FF04 1-392): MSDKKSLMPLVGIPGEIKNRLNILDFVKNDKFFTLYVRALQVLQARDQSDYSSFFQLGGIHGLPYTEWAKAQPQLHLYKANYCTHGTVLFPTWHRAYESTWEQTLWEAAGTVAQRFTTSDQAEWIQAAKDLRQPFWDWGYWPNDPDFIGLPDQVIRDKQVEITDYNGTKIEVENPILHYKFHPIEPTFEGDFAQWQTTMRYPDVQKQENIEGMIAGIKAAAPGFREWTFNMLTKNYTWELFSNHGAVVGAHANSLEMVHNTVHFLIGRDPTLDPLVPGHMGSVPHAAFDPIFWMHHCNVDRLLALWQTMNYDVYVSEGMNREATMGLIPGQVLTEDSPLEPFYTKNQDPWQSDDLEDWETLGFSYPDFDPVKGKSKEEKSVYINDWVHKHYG

As to `Cc1c(C)c2c(c(C)c1O)CCC(C)(C(=O)O)O2` (centres unmarked) [Trolox, reference compound], the “ABTS+ scavenging” value in [1] was found to be 99%. In addition, in data set [2], the ROS-scavenging activity result was “strong ROS-scavenging activity”.
Regarding `O=C1N=C(Nc2cccc3ccccc23)S/C1=C\c1ccc(O)c(Br)c1` [Compound 15, (Z)-5-(3-Bromo-4-hydroxybenzylidene)-2-(naphthalen-1-ylamino)thiazol-4(5H)-one], the Ki in [3] (Dixon plots, substrate L-DOPA) stood at 4.87 µM. Also, the inhibition mechanism entry in data set [3] (Lineweaver–Burk plots, L-DOPA 1–16 mM) is reported as “compete with the substrates for binding to the active site of tyrosinase”. Moreover, the “cytotoxicity in B16F10 cells” value in [4] (1 μM) is listed as “significant cytotoxicity was observed”. Also, the B16F10 cell viability entry in data set [4] (1, 2, 5, 10 and 20 μM) was “clearly reduced cell viability in a concentration-dependent manner”. Moreover, the “depigmentation capacity in zebrafish larvae” value in data set [5] (0.1 mM vs kojic acid 20 mM) is “depigmentation capacity similar to that of kojic acid, even at a concentration 200 times lower”. Moreover, the “tyrosinase activity of zebrafish larvae compared with kojic acid” value in data set [6] (0.3 mM vs kojic acid 20 mM) is given as “comparable to that of kojic acid, even at a concentration 70 times lower”. For the same compound, in data set [6] (0.1 and 0.3 mM), the “tyrosinase activity of zebrafish larvae” value is listed as “decreased tyrosinase activity in a concentration-dependent manner”.
For `O=c1cc(CO)occ1O` [Kojic acid, reference compound], the stimulator-induced melanin content in data set [7] was 3.4 fold. The cellular tyrosinase activity in data set [8] turned out to be 3.3 fold. Also, the “in situ melanin formation (L-DOPA staining)” value in data set [9] is listed as “melanin production was suppressed compared with that in the group treated with only stimulators”. For the same compound, in [5], the “pigmentation of zebrafish larvae” value is reported as “pigmentation of zebrafish larvae was reduced”. The “tyrosinase activity of zebrafish larvae” value in data set [6] (20 mM) is “significantly reduced tyrosinase activity”.
In the case of `O=C1N=C(Nc2cccc3ccccc23)S/C1=C\c1ccc(O)c(O)c1` [Compound 8, (Z)-5-(3,4-Dihydroxybenzylidene)-2-(naphthalen-1-ylamino)thiazol-4(5H)-one], the DPPH radical scavenging in data set [10] came to 77%. Further, the “ABTS+ scavenging” value in data set [1] is given as 99%. Also, the ROS-scavenging activity entry in data set [2] is “very strong ROS-scavenging capacity, which was more potent than that of Trolox”.
